Molecules are shown by their SMILES. Substitutions are numbered along the chain they refer to. Like-named read-outs stand apart in the source and are kept apart here. Bounds are passed on as bounds.

Assay [1] addresses T1, AadA wild type (Salmonella typhimurium, UniProt Q8ZPX9).
T1 construct: made in house; host or cells: Escherichia coli BL21 Star
T1 sequence (Q8ZPX9 1-262): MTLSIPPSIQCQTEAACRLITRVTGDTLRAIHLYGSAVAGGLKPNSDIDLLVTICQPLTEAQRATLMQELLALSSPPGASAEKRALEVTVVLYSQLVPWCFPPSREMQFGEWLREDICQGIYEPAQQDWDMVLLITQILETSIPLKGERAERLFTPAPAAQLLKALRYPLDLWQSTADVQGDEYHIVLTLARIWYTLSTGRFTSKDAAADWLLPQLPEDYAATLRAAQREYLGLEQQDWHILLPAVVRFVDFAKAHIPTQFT
The experiment in a line: ITC binding, wild-type AadA. Also noted: species or system Salmonella enterica. The settings on record: for Kd: ITC; for binding to AadA in the absence of ATP (ITC): data not shown. On the procedure: (§1) Binding studies were performed at 25°C using a MicroCal iTC200 instrument (GE Healthcare). Wild-type or mutant AadA at 20–30 µM concentration was dialyzed overnight against 50 mM Tris–HCl pH 7.5, 200 mM NaCl, 5 mM MgCl2, 1 mM tris(2-carboxyethyl)phosphine and titrated with 500–1000 µM ATP, streptomycin (Sigma) or spectinomycin (Sigma) freshly dissolved in the same batch of dialysis buffer prior to each experiment. For titration of streptomycin/spectinomycin in the presence of ATP, a first titration of AadA with ATP to saturation was followed by a second titration with streptomycin/spectinomycin in buffer containing an equivalent concentration of ATP as in the cell. In this way, heats of dilution of ATP were avoided. At least […] consecutive injections of 2 µl were applied at 2 min intervals. The data were analyzed using the MicroCal Analysis plugin in Origin. All ITC data were analyzed assuming one set of binding sites. Each experiment was performed at least twice. For spectinomycin, the concentration used to fit the data was adjusted to the estimated active concentration in binding to AadA, assuming 1:1 binding.

For assay [2], the target named is T2, AadA R192A (Salmonella typhimurium, UniProt Q8ZPX9, R192A).
T2 construct: made in house; host or cells: Escherichia coli BL21 Star
T2 sequence (Q8ZPX9 1-262 R192A): T1 sequence (Q8ZPX9 1-262) with R192A
The experiment in a line: ITC binding, AadA R192A. Also noted: species or system Salmonella enterica. Conditions: for Kd: in the presence of ATP, read-out: K d of substrate ligand (streptomycin / spectinomycin). On the procedure:
as §1

Assay [3] deals with T3, AadA K205A (Salmonella typhimurium, UniProt Q8ZPX9, K205A).
T3 construct: made in house; host or cells: Escherichia coli BL21 Star
T3 sequence (Q8ZPX9 1-262 K205A): T1 sequence (Q8ZPX9 1-262) with K205A
The experiment in a line: ITC binding, AadA K205A. Further details: species or system Salmonella enterica. The settings on record: for Kd: in the presence of ATP, read-out: K d of substrate ligand (streptomycin / spectinomycin). The method, then: as §1

Assay [4] has as its system AadA Glu87 mutants (E87A and E87Q). Description: ITC binding, Glu87 mutants of AadA stated together. Further details: species or system Salmonella enterica. On the procedure: as §1
The target in assay [5] is T4, AadA E87A (Salmonella typhimurium, UniProt Q8ZPX9, E87A).
T4 construct: made in house; host or cells: Escherichia coli BL21 Star
T4 sequence (Q8ZPX9 1-262 E87A): T1 sequence (Q8ZPX9 1-262) with E87A
The experiment in a line: ITC binding, AadA E87A. Further details: species or system Salmonella enterica. Conditions: 25°C, in the presence of ATP, nb = no binding detected. On the procedure:
as §1

For assay [6], the target named is T5, AadA D182N (Salmonella typhimurium, UniProt Q8ZPX9, D182N).
T5 construct: made in house; host or cells: Escherichia coli BL21 Star
T5 sequence (Q8ZPX9 1-262 D182N): T1 sequence (Q8ZPX9 1-262) with D182N
The experiment in a line: ITC binding, AadA D182N. Also noted: species or system Salmonella enterica. The settings on record: 25°C, in the presence of ATP, read-out: K d of substrate ligand (streptomycin / spectinomycin). On the procedure:
as §1

The target in assay [7] is T6, AadA E87Q (Salmonella typhimurium, UniProt Q8ZPX9, E87Q).
T6 construct: made in house; host or cells: Escherichia coli BL21 Star
T6 sequence (Q8ZPX9 1-262 E87Q): T1 sequence (Q8ZPX9 1-262) with E87Q
The experiment in a line: ITC binding, AadA E87Q. Also noted: species or system Salmonella enterica. The settings on record: 25°C, in the presence of ATP, nb = no binding detected. The method, then: as §1

The test system of assay [8] is bacterial growth. Further details: method as in vendor (Sigma). Conditions: as sold; as estimated from a bacterial growth assay; ref vendor (Sigma); cited from earlier work.
Assay [9] has as its target T7, AadA W112F (Salmonella typhimurium, UniProt Q8ZPX9, W112F).
T7 construct: made in house; host or cells: Escherichia coli BL21 Star
T7 sequence (Q8ZPX9 1-262 W112F): T1 sequence (Q8ZPX9 1-262) with W112F
The experiment in a line: ITC binding, AadA W112F. Also noted: species or system Salmonella enterica. The settings on record: 25°C, in the presence of ATP, read-out: K d of substrate ligand (streptomycin / spectinomycin). On the procedure:
as §1

[10] abbreviates: ITC, 25°C, 5 mM MgCl2, nb = no binding detected.
Setting [11] is: 25°C, in the presence of ATP, wild type AadA, read-out: K d of substrate ligand (streptomycin / spectinomycin).

`Nc1ncnc2c1ncn2[C@@H]1O[C@H](COP(=O)(O)CP(=O)(O)OP(=O)(O)O)[C@@H](O)[C@H]1O` [AMPCPP]: the “binding to wild-type AadA (ITC)” value in [1] (nucleotide titrated alone) is “did not show any detectable binding”.

Regarding `Nc1ncnc2c1ncn2[C@@H]1O[C@H](COP(=O)(O)OP(=O)(O)OP(=O)(O)O)[C@@H](O)[C@H]1O` [ATP], the “ATP binding (ITC)” value in assay [2] and in assay [3] was “no ATP binding could be detected” in each case. For the same compound, the “K d(ATP)” value in assay [2] (setting [10]) and in assay [3] (setting [10]) was “nb” throughout. The Kd in [1] (wild-type AadA, read-out: K d of ATP) came to 13000 nM. For the same compound, in assay [4] (E87Q and E87A vs wild type, ITC), the “lower affinity for ATP compared with the wild type” value is given as “threefold to fourfold lower affinity”.

On to `CN[C@@H]1[C@H](O)[C@H](NC)[C@H]2O[C@@]3(O)C(=O)C[C@@H](C)O[C@H]3O[C@@H]2[C@H]1O` [Spectinomycin, spectinomycin], for which the Kd is over 30000 nM in [2] (ITC, 25°C); 500 nM in assay [1] (setting [11]); over 10000 nM in [3] (ITC, 25°C); over 30000 nM in [6]; 600 nM in [9]. The “K d of substrate ligand (streptomycin / spectinomycin)” value in assay [5] and in assay [7] was “nb” in each case. In addition, in assay [1], the “binding to AadA in the absence of ATP (ITC)” value is given as “did not display detectable binding”. The “activity in binding to AadA, of the assumed active concentration” value in assay [1] (from fit of the ITC data assuming 1:1 binding) is recorded as 31%. Further, in assay [4] (Glu87 mutants), the “binding of spectinomycin (ITC)” value is recorded as “no measurable binding”. Besides, in [8], the potency was 603 µg/mg.

With `[H]/N=C(/N)N[C@H]1[C@H](O)[C@@H](O)[C@H](O[C@@H]2O[C@@H](C)[C@](O)(C=O)[C@H]2O[C@@H]2O[C@@H](CO)[C@H](O)[C@@H](O)[C@@H]2NC)[C@@H](N/C(N)=N\[H])[C@@H]1O` [Streptomycin, streptomycin], the Kd in assay [2] (ITC, 25°C) was over 100000 nM; in assay [1] (setting [11]), 500 nM; in assay [3] (ITC, 25°C), 1300 nM; in assay [6], 700 nM; in [9], 800 nM. For the same compound, in assay [1], the “binding to AadA in the absence of ATP (ITC)” value is listed as “did not display detectable binding”. The “lowered affinity for streptomycin” value in assay [4] (Glu87 mutants vs wild type, ITC) is listed as 20–40 fold.

These data come from article PMC4631478, “Structure of AadA from Salmonella enterica: a monomeric aminoglycoside (3′′)(9) adenyltransferase” (Acta Crystallographica Section D: Biological Crystallography, 2015).
